In brackets after ≈: the same amount, converted by molar mass.
Experiments:
[1] = Release of other therapeutic agents from blended PVA cast films or electrospun membranes; format: physicochemical; conditions: for drug release: 1% gentamicin
Procedure: Films or electrospun membrane were manufactured as described above containing either docetaxel, doxycycline, gentamicin or bovine serum albumin (BSA; as a protein model for any “biological” based drug such as an antibody). […] Gentamicin was analyzed using a fluorescence tag assay using Fluoraldehyde™ (Thermo Fisher) and BSA protein release was assayed using a BCA protein analysis kit.

[2] = cited from earlier work
[3] = Silver release studies (inductively coupled plasma analysis of release media); format: physicochemical; conditions: electrospun membranes 10:90 PVA99%:PVA88%, 1% w/w silver salt
Procedure: Films or electrospun membranes containing silver were placed in deionized water and the media sampled at regular intervals for silver analysis by Inductively coupled plasma analysis. Silver calibration standards were run every 10 samples. The instrument held reproducible standard curves over 100 sequential silver analysis with detection limits approximating 10 ng/ml. Each release study was run in triplicate for at least two weeks and the results plotted as the calculated percent silver released as a function of time.

MRSA strain USA300 = assay: Antimicrobial efficacy of silver-loaded PVA films and membranes; format: cell-based, S. aureus; conditions: for bacterial death: 1% w/w silver, 20 mg in 10 mL, up to 48 hours; for Anti-bacterial (MRSA) activity: 1% w/w silver salt (FIG. 11)
Procedure: In order to illustrate the antimicrobial activity of PVA-silver formulations, all cast films and electrospun membranes were weighed at 20 mg +/- 0.5 mg. The methicillin resistant strain of S. aureus (MRSA strain USA300) was cultured overnight from freezer stocks (20 µL bacterial sample into 20 mL Luria Bertani (LB) broth), followed by a second sub-culture (200 µL in 20 mL LB broth) until an optical density of -0.3-0.5 at λ=600 nm was reached (measured using an Eppendorf BioPhotometer (Eppendorf, Mississauga, ON, Canada), at which point bacteria were used as outlined below.

[4] = Film swelling and degradation studies in deionized water (cast films and electrospun membranes); format: physicochemical; conditions: cast films with 48% and 46% PVA 99% content (rest PVA 88%)
Procedure: PVA films or electrospun membranes were prepared as described above. These films were then stored for one week in the dark before use. Small sections of films (approximate diameters of 2 cm) were then placed on moist 0.2 µm filter discs (Millipore, Billerica, MA, USA) and weighed. The films and filters were covered with a thin layer of deionized water and left for appropriate times. After set time points the filter discs and adherent PVA-silver gel were moved to a Millipore vacuum apparatus and all excess water was removed from the filter over approximately 15 seconds. The combined PVA gel and filter were reweighed and recovered with a fresh layer of excess water. The weight gain (swelling) and weight loss (dissolution) were then calculated as a percentage of the original dry film weight.

[5] = electrospun membranes 10:90 PVA99%:PVA88%

## CC(=O)O[C@@]12CO[C@@H]1C[C@H](O)[C@@]1(C)C(=O)[C@H](O)C3=C(C)[C@@H](OC(=O)[C@H](O)[C@@H](NC(=O)OC(C)(C)C)c4ccccc4)C[C@@](O)([C@@H](OC(=O)c4ccccc4)[C@H]21)C3(C)C [docetaxel]
[1]; electrospun membranes 35:65, 45:55 or 55:45 PVA 99%:88%, 1% docetaxel, over 7 days
  drug release, % of total drug: 5-8%

## C[C@H]1c2cccc(O)c2C(=O)C2=C(O)[C@]3(O)C(=O)C(C(N)=O)=C(O)[C@@H](N(C)C)[C@@H]3[C@@H](O)[C@@H]21 [doxycycline]
[2]
  water solubility: 500 µg/mL (≈ 1130 µM)

## O=S(=O)([O-])[O-].[Ag+].[Ag+] [silver sulphate]
[3]
  silver release by day 11: 75%
MRSA strain USA300; cast films 40:60 PVA99%:PVA88%
  bacterial death: 100%
MRSA strain USA300; [5]
  Anti-bacterial (MRSA) activity: killed all MRSA bacteria
  bacterial death: 100%
MRSA strain USA300; films 40:60 PVA99%:PVA88%
  Anti-bacterial (MRSA) activity: killed all MRSA bacteria
[4]
  swelling at 6 hours: > 0%

## gentamicin
[1]; cast films 35:65, 45:55 or 55:45 PVA 99%:88%, over 7 days
  drug release: 50-70%
[1]; electrospun membranes 35:65, 45:55 or 55:45 PVA 99%:88%, over 6 days
  drug release: 40%

Source: patent US20230303817A1, “BLENDED POLYVINYL ALCOHOL DRUG DELIVERY SYSTEMS” (The University of British Columbia, priority 2020, published 2023)
